Assay results as given in the METLIN SMRT retention time set (Domingo-Almenara et al. 2019).

Test: gradient 5% acetonitrile 3 min, to 50% in 2 min, to 85% in 15 min, held 3 min, 100 µL/min
Details: column: Zorbax Extend-C18 2.1 x 50 mm; eluents: water / acetonitrile, 0.1% formic acid
Outline: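 A Zorbax Extend-C18 column (2.1 × 50 mm, 1.8 μm) run at 100 μL/min with water and acetonitrile, both containing 0.1% formic acid, separated mixtures of ~100 pure standards. The HPLC was coupled to a quadrupole time-of-flight mass spectrometer operated in positive and negative ionization mode, with dead and dwell volumes of 40 μL and 900 μL. Each retention time was taken from a computationally picked adduct peak that was then manually inspected.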

Compound	RP-LC retention time [s]
CCOC(=O)c1c(NCc2ccccc2Cl)c2cccc(Cl)c2[nH]c1=O	867
Cc1ccc(CNC(=O)c2csc(-c3ccc(N4CCCC4)nc3)n2)o1	679
Cc1ccc(C(=O)N2CCC3(C2)C(=O)N(C)c2ccccc23)cc1F (stereo not drawn)	815
CSc1ccccc1NC(=O)c1cc2nc(C)ccc2o1	756
Cc1c(-c2noc(-c3ccc4c(c3)OCO4)n2)nnn1Cc1ccccc1	1010
O=C(c1cn(-c2cc(-c3nc(C4CC4)no3)ccn2)cn1)N1CCCC1	767
Cc1ccc(CNC(=O)C2=CCN(Cc3cccc(F)c3)CC2)o1	626
C[C@H]1CN(C(=O)Cc2c(F)cccc2Cl)C[C@@H]1c1nc(-c2ccccc2)no1	1100
CN(Cc1ccccc1)c1ccc(-c2noc(CN3CCN(c4ccccc4)CC3)n2)cn1	1100
CCOC(=O)COc1ccccc1C1CC(c2ccc(Br)cc2)=NN1C(C)=O (stereo not drawn)	1050
CCN1C(=O)COc2ccc(-c3nc(NC(=O)c4ccccc4Cl)sc3C)cc21	1000
Cc1ccc(CNC(=O)C2CCN(c3cncnc3N3CCCCC3)CC2)o1	643
COc1cccc(C2Cn3nnc(-c4nc(-c5ccc(Cl)cc5)no4)c3CO2)c1 (stereo not drawn)	1220
CN1C(=O)c2cccnc2Sc2cc(NC(=O)C3CCCO3)ccc21 (stereo not drawn)	619
COC(=O)c1cccc(NC(=O)N(C)CCc2noc(C3CCCCC3)n2)c1	937
Fc1ccc(Cl)cc1-c1nnc(-c2ccc(-n3ccnc3)nc2)o1	681
O=C(Nc1ccccc1C(F)(F)F)c1csc(-c2ccc(N3CCCC3)nc2)n1	890
CCCNC(=O)C1CCN(c2ccc(SCC(=O)Nc3ccc(OC)cc3)nn2)CC1	611
COc1ccc(CCc2nc3nccc(-c4ccc(OC)cc4)n3n2)cc1	943
CCCn1cc(CCNC(=O)Nc2ccc(C)cc2C)c2cccnc21	781
c1ccc(-c2nc(-c3ccncc3)no2)c(OC2CCN(Cc3ccc4c(c3)CCO4)C2)c1 (stereo not drawn)	611
O=C(NC1CCCCC1)C1CCc2ncc(-c3ccsc3)n2C1 (stereo not drawn)	584

Compound	RP-LC retention time [s]
CN1C(=O)c2cc(C(=O)NCc3ccc(F)cc3)nn2CC1(C)C(=O)NC1CCCCCC1 (stereo not drawn)	840
CC(C)n1cnnc1CC1CN(C(=O)Nc2ccccc2Cl)C1	640
CC1CCC(NC(=O)C2CCN(C(=O)c3ncn4c3COC(c3ccc(F)cc3)C4)CC2)CC1 (stereo not drawn)	826
CCNC(=O)c1nn(-c2ccc(F)cc2)c(OC)cc1=O	645
CCc1cccc(C)c1NC(=O)CN1C(=O)NC2(CCCCC2)C1=O	804
CC(C)CN1C(=O)c2cccn2CC1C(=O)NCc1cccs1 (stereo not drawn)	754
CCOC(=O)c1c(S(=O)(=O)NCc2ccc3c(c2)OCO3)n[nH]c1CC	718
CN1C(=O)CCc2cc(NS(=O)(=O)c3cccc(Cl)c3)ccc21	783
Cn1nc(CN2CCCC2)c2c1CCN(S(=O)(=O)c1ccc(F)cc1F)C2	622
CC(C)CN(CC(C)C)C(=O)CCCN1C(=O)c2ccccc2C1=O	947
CCOC(=O)c1c(S(=O)(=O)N2CCC(C(=O)Nc3ccc(F)c(F)c3)CC2)c(C)n(C)c1C	890
Cc1oc(-c2ccc(C(=O)N3CCN(c4ccccn4)CC3)cc2)nc1CN1CCc2ccccc21	766
Cc1cc(-c2c(C)sc(C)c2S(=O)(=O)NC2CCCCCC2)n[nH]1	1140
Fc1cccc(-c2noc(-c3ccc(N4CCN(c5ccccn5)CC4)nc3)n2)c1	799
Cc1sc(C)c(S(=O)(=O)Nc2ccc3c(c2)OCCO3)c1-c1cc(C(F)(F)F)on1	1070
CN(C)S(=O)(=O)N1CCCC(c2nc(-c3ccccc3)no2)CCNC(=O)CC1 (stereo not drawn)	782
Cc1ccc(-n2ncc3c(=O)n(Cc4nc(-c5ccc(Cl)c(F)c5)no4)cnc32)cc1	1210
O=C(CCc1ccc2cc[nH]c2c1)N1CCN(c2ccc(Cl)cc2)CC1	996
Cc1nn(-c2ccccc2)c(C)c1S(=O)(=O)N1CCC(C(=O)Nc2cccc(C#N)c2)CC1	958
COCCCNC(=O)c1ccc2c(c1)N(Cc1ccccc1)C(=O)CO2	732
O=C(NCc1cccs1)C1CC(=O)N(c2ccc3c(c2)CCN3C(=O)C2CC2)C1 (stereo not drawn)	710
NC(=O)c1cc(-c2ccc(F)cc2)nc2ccccc12	776

Compound	RP-LC retention time [s]
Cc1nc2cc(-c3noc(Cc4cccc5ccccc45)n3)ccc2o1	1130
Cc1ccc(NC(=O)Cn2nc(N3CCCCCC3)c3ccccc3c2=O)c(C)c1	1100
COc1ccc(CNC(=O)C2=C3CCCN3c3ccc(F)cc3S2(=O)=O)cc1OC	764
O=C(CCc1c[nH]c2ccccc12)NC1CCN(c2ccc(=O)[nH]n2)C1 (stereo not drawn)	595
Cc1ccc(C)c(N2CCN(c3ccnc(SCC(=O)Nc4ccc(F)cc4F)n3)CC2)c1	1000
CN1C(=O)c2cccnc2Sc2cc(NC(=O)c3ccccc3C(F)(F)F)ccc21	799
CCOC(=O)c1c(C)n(CCNC(C)=O)c2cc(Br)c(OC)cc12	706
CCOc1ccc(CNC(=O)C2(c3ccc(NC(C)=O)cc3)CCCCC2)cc1	866
Cc1c(F)cccc1NC(=O)N1CCN(C2=CC3=NC(C)CN3C=N2)CC1 (stereo not drawn)	649
COc1ccc(-c2nnc(-c3ccc(C)c(S(=O)(=O)NC(C)(C)CO)c3)o2)cc1OC	749
O=C(NCCc1ccc(F)cc1)C1CC(=O)N(CCc2c[nH]c3ccc(Cl)cc23)C1 (stereo not drawn)	830
O=C(NCC(c1ccsc1)N1CCCCCC1)C(=O)Nc1ccc2c(c1)OCCO2 (stereo not drawn)	570
Cc1sc2ccn(CC(C)C)c(=O)c2c1C(=O)NCCN1CCN(C)CC1	574
CN(C)c1ccc(C(=O)Nc2cc(-c3cccnc3)no2)cc1	738
C[C@@H]1CCN(C(=O)C(CCCN=C(N)N)NS(=O)(=O)c2cccc3c2NC[C@H](C)C3)C(C(=O)O)C1 (stereo partly drawn)	767
COc1ccc(Cl)cc1C(=O)NCC(c1ccsc1)N1CCCC1 (stereo not drawn)	582
CCCCc1ccc(N2C=C(C#N)S(=O)(=O)c3ccccc32)cc1	1150
CCOC(=O)Cc1csc(NC(=O)Cc2csc(Nc3cc(C)ccn3)n2)n1	624
Cc1ccc(CN2CC(CO)C3(CCNCC3)C2)cc1C (stereo not drawn)	551
CCCN(Cc1cccs1)C(=O)c1cc2c(=O)n(CCC)c3ccccc3n2n1	1140
COc1ccc(C2C(C(=O)N3CCCC(C)C3)c3cc(OC)c(OC)cc3C(=O)N2C)cc1 (stereo not drawn)	817
CCCCNC(=O)C1CCN(c2nc3ccc(-c4cccnc4)nc3s2)CC1	588

Compound	RP-LC retention time [s]
COc1ccc(-c2cc3c4nnc(CCC(=O)NCc5ccco5)n4ccn3n2)cc1	665
O=C(NCc1ccccc1)C(=O)c1c[nH]c2ccccc12	605
COc1ccccc1-c1nc(Cn2nnc(-c3nc(-c4ccc(Cl)cc4)no3)c2C)c(C)o1	1220
NC(=O)C1CCN(C(=O)CN2c3ccc(Br)cc3-c3ccccc3S2(=O)=O)CC1	705
COc1ccc(C2=NC3(CCN(C)CC3)NC(c3cccc(OC)c3O)C2)cc1 (stereo not drawn)	583
CCOc1ccc(NS(=O)(=O)c2cc(C(=O)Nc3ccc(C)c(C)c3)n[nH]2)cc1	902
Cc1ccc(Sc2nccnc2N2CCCC(C(=O)N3CCN(c4ccc(F)cc4)CC3)C2)cc1 (stereo not drawn)	1230
COc1ccc(CCNC(=O)CN2C(=O)NC(c3ccc(Cl)cc3)C3=C2COC3=O)cc1OC (stereo not drawn)	750
CCOc1ccc(N2C(=O)C3N=NN(Cc4nc(-c5ccc(OC(C)C)cc5)no4)C3C2=O)cc1 (stereo not drawn)	1120
Cc1ccc(-c2nc(C3CC(=O)N(c4ccc(F)cc4)C3)no2)c(C)c1 (stereo not drawn)	1120
O=c1n(Cc2ccccc2F)nc2c(S(=O)(=O)N3CCCCC3)cccn12	891
O=C(Nc1ccccc1)N1CCC(n2c(-c3ccoc3)nc3cccnc32)C1 (stereo not drawn)	712
Cn1c(=O)c(N2CCC(C(=O)NCCN3CCCCCC3)CC2)nc2cccnc21	611
COCCNCc1ccc(-c2cc(Cl)ccc2Cl)o1	684
O=C(Nc1ccc(N2CCN(C3CCCC3)C2=O)nc1)c1ccccc1F	804
Cc1cccc(NC(=O)NCC(c2cccnc2)c2c[nH]c3ccccc23)c1C (stereo not drawn)	661
Cc1oc(C2CCN(C(=O)c3cc(F)ccc3F)CC2)nc1C(=O)N1CCCC1	769
CN1CCC(c2c[nH]c3ccccc23)C1 (stereo not drawn)	648
CCn1cc(-c2ccc(Cl)cc2)cc1C(=O)NCCCN(C)C	694
CCC(=O)N1CCc2cc(N3CC(C(=O)Nc4ccccc4OC)CC3=O)ccc21 (stereo not drawn)	758
O=C(Nc1nc(-c2ccc(Cl)c(Cl)c2)cs1)c1ccc(F)c(F)c1	1260
CC(C)(Oc1ccc(Cl)cc1)C(=O)NCc1nnnn1C1CCCCC1	945
